# Measurements published in PMC4193777 (PLoS ONE, 2014).
# Columns and labels:
# FPR2 = experiment: Calcium mobilization in undifferentiated HL-60 cells overexpressing FPR2; assay type: cell-based; conditions: Fura-2; F2Pal10 10 nM
# Text: The procedures used to obtain stable expression of FPR1 and FPR2 in undifferentiated HL-60 cells have been previously described. To prevent possible auto-differentiation due to the accumulation of differentiation factors in the culture medium, cells were passed twice a week before they reached a density of 2×10^6 cells/ml. At each passage, an aliquot of the cell culture was centrifuged, the supernatant was discarded and the cell pellet was resuspended in fresh RPMI 1640 medium containing FCS (10%), PEST (1%), and G418 (1 mg/ml).
# Neutrophils or transfected HL-60 cells at a density of 5×10^7 cells/ml in KRG containing 0.1% BSA were loaded with 5 µM FURA 2-AM for 30 minutes in the dark at room temperature. […] Calcium measurements were carried out in a PerkinElmer fluorescence spectrophotometer (LC50), with excitation wavelengths of 340 nm and 380 nm, an emission wavelength of 509 nm, and slit widths of 5 nm and 10 nm, respectively. The transient rise in intracellular calcium is presented as the ratio of fluorescence intensities (340 nm: 380 nm) detected. […] The relative calcium level was expressed as a ratio between Fluo-3 and Fura Red (FL-1/FL-3) fluorescence over time.
# Figure 1 The F2Pal10 pepducin specifically activates FPR2. […] The release of superoxide anions was recorded continuously. […] Abscissa, time of study (sec); ordinate, fluorescence (arbitrary units).
# desensitized FPR2 = experiment: PAF-induced cross-talk reactivation of desensitized FPR2 (superoxide); assay type: cell-based, human
# Protocol: Human peripheral blood neutrophils were isolated from buffy coats from healthy blood donors using dextran sedimentation and Ficoll-Paque gradient centrifugation as described. The remaining erythrocytes were disrupted by hypotonic lysis, the neutrophils were washed twice, resuspended in KRG, and stored on melting ice until use. This isolation procedure permits cells to be purified with minimal granule mobilization.
# The NADPH-oxidase activity was determined using isoluminol-enhanced chemiluminescence (CL), [27]. The CL activity was measured in a six-channel Biolumat LB 9505 (Berthold Co., Wildbad, Germany), using disposable 4-ml polypropylene tubes with a 900 µl reaction mixture containing 10^5 cells, isoluminol (2×10^−5 M) and HRP (2 U). The tubes were equilibrated in the Biolumat for 5 min at 37°C, after which the stimulus (100 µl) was added and the light emission was recorded continuously. Receptor desensitized cells were defined as naïve (non-desensitized) cells that had first been stimulated with a receptor specific agonist and returned to baseline after the resulting release of superoxide before a second stimulation. When reactivation experiments were performed with antagonists, the antagonists were added to the CL reaction mixture 1 min before the second stimulation. For studies with signaling inhibitors, cells were incubated with inhibitors at 37°C for 15 min before agonist addition. Control cells received no treatment but were incubated under the same conditions.
# Figure 3 PAF- or ATP-stimulation induces reactivation of desensitized FPR2. […] A representative experiment is shown and the time point for addition of FPR2 agonists is indicated by the first arrow, the time point for PAF stimulation (100 nM final concentration) with the second arrow. The control PAF response induced in naïve (non-desensitized) neutrophils is shown for comparison (dotted line). Abscissa: Time of study (min); ordinate: Superoxide production (Mcpm). B. Naïve neutrophils were first desensitized with F2Pal10 (F2Pal10des., 500 nM final concentration) and subsequently stimulated with PAF (100 nM final concentration; time point for PAF addition is indicated by an arrow). The FPR2 specific inhibitor PBP10 (1 µM) was added 1 min prior to PAF stimulation (dashed line) and the release of superoxide anions was recorded continuously. The PAF responses induced in naïve cells (solid line), as well as in F2Pal10-desensitized cells receiving no PBP10 (dotted line), are shown for comparison. Abscissa: Time of study (min); ordinate: Superoxide production (Mcpm). C. Effect of calyculin A on receptor cross-talk induced FPR2 reactivation. Cells desensitized with F2Pal10 (F2Pal10des.) were incubated with the phosphatase inhibitor calyculin A (60 nM; solid line) or buffer as control (dashed line) for 10 min at 37°C prior to PAF stimulation (100 nM). The release of superoxide anions was recorded continuously. Abscissa: Time of study (min); ordinate: Superoxide production (Mcpm). […] Abscissa: Time of study (min); ordinate: Superoxide production (Mcpm). […] The results are given as peak values of superoxide production following addition of ATPγS (mean+SEM; n = 3).
# Figure 4 More pronounced reactivation was induced by PAF in neutrophils desensitized by the pepducin F2Pal10. […] The results are given as peak values of superoxide production from three separate experiments for the first stimulation with FPR2 agonists (mean+SEM, n = 3). […]
smiles,measurement,setting,value
CSCC[C@H](NC(=O)[C@@H](NC(=O)[C@H](CCSC)NC(=O)[C@H](Cc1ccc(O)cc1)NC(=O)[C@H](CCCCN)NC(=O)[C@@H](N)Cc1c[nH]c2ccccc12)C(C)C)C(N)=O [WKYMVM],"intracellular calcium response, FPR2 HL-60 cells",FPR2,time course of the response was very similar
same,"type of agonism, cross-talk reactivation",desensitized FPR2; PAF- and ATP-induced cross-talk reactivation of desensitized FPR2,partial agonist
same,priming of PAF response in desensitized neutrophils,"desensitized FPR2; desensitizing agent F2Pal10 500 nM or WKYMVM 40 nM, PAF 100 nM",primed in their response to PAF
